# Patent US8334267B2, “Mangiferin calcium salts, the method for its preparation and its use” (Hainan Deze Drug Research Co., Ltd., priority 2007, dated 2012)
# Structures can show the parent of a compound that is named as a salt.
# How the values were obtained:
# GK rats = test: Efficacy in GK model (plasma glucose, insulin, lipids); format: in vivo, Goto-Kakizaki rats (GK)
# Description: Rosiglitazone Hydrochloride tablets were purchased from Zhejiang wanma pharmaceutical Co., Ltd. Mangiferin and mangiferin calcium were suspended with 3% sodium carboxymethyl cellulose before use.
# Goto-Kakizaki rats (GK) (16 weeks age, ♀ ♂) were purchased from Shanghai SLAC laboratory animal Co., Ltd. The animals were kept in IVC cages with temperature (22° C.). There are two rats in each cage.
# Experimental group: GK rats group (n=10); mangiferin groups (20, 40, 80 mg/kg, each 10 rats); mangiferin calcium groups (10, 20, 40 mg/kg, each 10 rats); Rosiglitazone Hydrochloride group [3 mg/kg, n=10]. Test samples or vehicle control was given orally for 30 days. GK rats group were given vehicle.
# The blood specimens were taken by abdominal aorta at the end of the test. Plasma glucose (GLU), insulin (INS), triglycerides (TG), total cholesterol (TC), high density lipoprotein (HDL), low density lipoprotein (LDL) were determined
# GLU, TC, TG, HDL and LDL levels were determined using GF-D800 semi-auto chemist which was purchased from Shandong Gaomi Caihong Analytical Instrument Co., Ltd. Insulin: radioimmunoassay (RIA), γ counter counts. insulin RIA Kit was purchased from Shandong Weifang City three-dimensional (3V) Biological company.
# Statistics: The results have been calculated as mean±SD ( x±SD) and comparisons of the data have been done by t-test.
# [1] = Pharmacokinetics of mangiferin and mangiferin calcium after oral administration; format: in vivo, rats; settings: rat, in vivo, po, 100 mg/kg
# Description: 1, The Confect of Drug Solution
# Mangiferin is suspended in Carboxymethyl cellulose sodium solution which concentration is one percent; the mangiferin concentration is 10 mg/mL, which is sample A.
# All rats were fasted for 16 hours, free drinking water. The rats are oral administrated separately sample A and sample B, which dose is 100 mg/kg. The rats were taken whole blood in 5 minutes before oral administrated and 15 min, 30 min, 45 min, 60 min, 90 min, 120 min, 180 min, 240 min, 300 min, 360 min, 480 min after oral administrated. Serum is separated from these blood samples.
# Serum Samples are extracted accurately 0.2 ml into centrifuge tubes separately; then 40 μL cold trichloroacetic acid solution which concentration is ten percent is added into centrifuge tubes separately. The samples are whorled 3 minutes; then centrifuged 12000 r/min for 10 minutes, 120 μl the up layer solution are extracted from centrifuge tubes and put into sample bottles separately. All the samples are detected by HPLC.
# Apparatus: Angilent 1100 HPLC (American Agilent Co.), include G1312A dual pump G1313A Auto-Sampler.
# Chromatographic column: discover ODS column (250 mm×6 mm, 5 μm);
# The mobile phase: Acetonitrile—0.1% H3PO4 water (13:87 v/v)
# Velocity of flow: 1.0 ml/min
# Detection Wavelength: 254 nm.
# Column temperature: 30° C.
# STZ rats = test: Efficacy in STZ model (plasma glucose, insulin, lipids, glucose clamp); format: in vivo, wistar rats; settings: for Glucose infusion rate: glucose clamp; for FFA / GLU / INS / TG: high fat chow
# Description: Rosiglitazone Hydrochloride tablets were purchased from Zhejiang wanma pharmaceutical Co., Ltd. Mangiferin and mangiferin calcium salts were suspended with 3% sodium carboxymethyl cellulose.
# Normal female wistar rats (SPF, 3 months age, 180-200 g) were purchased from Hainan provincial peoples hospital experimental Animal Center. The animals were kept in a room temperature (25˜28° C.) with free access of food and water. A light-dark cycle (6 a.m and 6 p.m) was strictly enforced. High fat chow is composed of 55% basic chow, 2% protein, 16% fat, 27% white sugar.
# Model: After the rats were fasted for 12 hours, the rats are injected 30-35 mg/kg streptozotocin (STZ) solution once by tail vein. STZ solution is prepared to 2% concentration with […], pH 4.4 citrate-sodium citrate buffer before use. The model rats were weighed, taked out tail vein blood, tested blood glucose when the Model is done after 14 days after fasting for 12 hours, then injected 20% glucose solution ([…]) by intraperitoneal, determined blood glucose in 0.5 h, 1 h, 2 h. The rats whose glucose tolerance is abnormal were brought into experiments. Normal wistar rats were fed normal chow, model rats were fed high fat chow.
# Experimental group:normal wistar rats group (n=10); after Diabetes model is succeed, the rats were randomly divided into 7 groups: Diabetes model group (n=10); mangiferin groups (20, 40, 80 mg/kg, each 10 rats); mangiferin calcium groups (10, 20, 40 mg/kg, each 10 rats); Rosiglitazone Hydrochloride group [3 mg/kg, n=10]. Test samples or vehicle control was given orally for 8 weeks. Diabetes model group and normal group were given vehicle.
# Determination of insulin sensitivity (Glucose infusion rate): Using glucose clamp technique, in accordance with Konglingdong'method ? KONG Ling-dong, ZHU Liang-zheng, SONG Ju-min, etc al. Intervention Effects of Tiaozhi Jiangtang Tablet on Insulin Resistance in Rats with Diabetes Mellitus Type 2.
# Determination of plasma glucose and lipid: Rats were taken whole blood after killed, then serum was separated, determined plasma glucose (GLU), insulin (INS), triglycerides (TG) and free fatty acids (FFA).
# GLU and TG levels were determined using GF-D800 semi-auto chemist which was purchased from Shandong Gaomi Caihong Analytical Instrument Co., Ltd. Free fatty acids were determined using copper colorimetric determination. The kits for Determination of free fatty acids were purchased from Nanjing Jiancheng Bioengineering Institute. Insulin: radioimmunoassay (RIA), γ counter counts. insulin RIA Kit was purchased from Shandong Weifang City three-dimensional (3V) Biological company.
# Statistics: The results have been calculated as mean±SD ( x±SD) and compareisons of the data have been done by t-test.
# [2] = Water solubility test in distilled water
# Description: 5 mg mangiferin powder which is weighed up accurately is put into 50 ml distilled water, the solution is shaked acutely 30 second every 5 minutes.
# 100 mg mangiferin calcium powder which is obtained by the method for preparation of example 8 and weighed up accurately is put into 50 ml distilled water, the solution is shaked acutely 30 second every 5 minutes.
smiles,measurement,setting,value
O=c1c2cc(O)c(O)cc2oc2cc(O)c(C3OC(CO)C(O)C(O)C3O)c(O)c12 (stereo not shown) [Mangiferin],GLU,GK rats; 20 mg/kg orally for 30 days,19.65 ± 5.07 mmol/L
same,HDL,GK rats; 20 mg/kg orally for 30 days,0.68 ± 0.12 mmol/L
same,INS,GK rats; 20 mg/kg orally for 30 days,26.94 ± 4.89 μ IU/ml
same,LDL,GK rats; 20 mg/kg orally for 30 days,1.56 ± 0.26 mmol/L
same,TC,GK rats; 20 mg/kg orally for 30 days,2.54 ± 0.28 mmol/L
same,TG,GK rats; 20 mg/kg orally for 30 days,1.69 ± 0.31 mmol/L
same,"improvement of GLU, TC, TG, HDL and LDL and INS in diabetic GK rats",GK rats; 20 mg/kg orally for 30 days,does not significantly improve
same,GLU,GK rats; 40 mg/kg orally for 30 days,20.33 ± 4.09 mmol/L
same,HDL,GK rats; 40 mg/kg orally for 30 days,0.75 ± 0.13 mmol/L
same,INS,GK rats; 40 mg/kg orally for 30 days,24.44 ± 1.91 μ IU/ml
same,LDL,GK rats; 40 mg/kg orally for 30 days,1.33 ± 0.41 mmol/L
same,TC,GK rats; 40 mg/kg orally for 30 days,2.50 ± 0.45 mmol/L
same,TG,GK rats; 40 mg/kg orally for 30 days,1.61 ± 0.22 mmol/L
same,"improvement of TG, HDL and LDL in diabetic GK rats",GK rats; 40 mg/kg orally for 30 days,improves
same,GLU,GK rats; 80 mg/kg orally for 30 days,20.57 ± 4.13 mmol/L
same,HDL,GK rats; 80 mg/kg orally for 30 days,0.78 ± 0.11 mmol/L
same,INS,GK rats; 80 mg/kg orally for 30 days,16.68 ± 1.76 μ IU/ml
same,LDL,GK rats; 80 mg/kg orally for 30 days,1.30 ± 0.38 mmol/L
same,TC,GK rats; 80 mg/kg orally for 30 days,2.45 ± 0.31 mmol/L
same,TG,GK rats; 80 mg/kg orally for 30 days,1.59 ± 0.16 mmol/L
same,AUC(0-inf),[1],31100 ng·h/mL
same,Cmax,[1],14800 ± 500 ng/mL
same,T1/2β,[1],45.7 ± 8.3 min
same,"improvement of GLU, TG, FFA, INS, Glucose infusion rate in diabetic rats",STZ rats; 20 mg/kg orally for 8 weeks,does not significantly improve
same,Glucose infusion rate,STZ rats; 20 mg/kg orally for 8 weeks,15.75 ± 3.69 mg/kg · min
same,Glucose infusion rate,STZ rats; 40 mg/kg orally for 8 weeks,18.32 ± 3.89 mg/kg · min
same,Glucose infusion rate,STZ rats; 80 mg/kg orally for 8 weeks,23.65 ± 3.67 mg/kg · min
same,FFA,STZ rats; 20 mg/kg orally for 8 weeks,1.79 ± 0.24 µmol/L
same,GLU,STZ rats; 20 mg/kg orally for 8 weeks,10.56 ± 0.38 mmol/L
same,INS,STZ rats; 20 mg/kg orally for 8 weeks,33.42 ± 3.79 μ IU/ml
same,TG,STZ rats; 20 mg/kg orally for 8 weeks,3.42 ± 0.41 mmol/L
same,FFA,STZ rats; 40 mg/kg orally for 8 weeks,1.56 ± 0.19 µmol/L
same,GLU,STZ rats; 40 mg/kg orally for 8 weeks,8.45 ± 0.23 mmol/L
same,INS,STZ rats; 40 mg/kg orally for 8 weeks,28.13 ± 3.74 μ IU/ml
same,TG,STZ rats; 40 mg/kg orally for 8 weeks,2.82 ± 0.22 mmol/L
same,FFA,STZ rats; 80 mg/kg orally for 8 weeks,1.29 ± 0.34 µmol/L
same,GLU,STZ rats; 80 mg/kg orally for 8 weeks,7.05 ± 0.44 mmol/L
same,INS,STZ rats; 80 mg/kg orally for 8 weeks,24.35 ± 3.46 μ IU/ml
same,TG,STZ rats; 80 mg/kg orally for 8 weeks,1.82 ± 0.32 mmol/L
same,dissolves in 30 minutes,[2]; 5 mg powder in 50 ml distilled water,can't be dissolved
same,solubility at 30 min,"[2]; water, thermodynamic from solid",< 100 µg/mL
"CN(CCOc1ccc(CC2SC(=O)NC2=O)cc1)c1ccccn1 (stereo not shown) [Rosiglitazone, Rosiglitazone Hydrochloride]",GLU,GK rats; 3 mg/kg orally for 30 days,24.38 ± 2.26 mmol/L
same,HDL,GK rats; 3 mg/kg orally for 30 days,0.78 ± 0.07 mmol/L
same,INS,GK rats; 3 mg/kg orally for 30 days,17.58 ± 9.80 μ IU/ml
same,LDL,GK rats; 3 mg/kg orally for 30 days,1.37 ± 0.19 mmol/L
same,TC,GK rats; 3 mg/kg orally for 30 days,2.40 ± 0.17 mmol/L
same,TG,GK rats; 3 mg/kg orally for 30 days,1.48 ± 0.12 mmol/L
same,Glucose infusion rate,STZ rats; 3 mg/kg orally for 8 weeks,24.75 ± 3.69 mg/kg · min
same,FFA,STZ rats; 3 mg/kg orally for 8 weeks,1.25 ± 0.13 µmol/L
same,GLU,STZ rats; 3 mg/kg orally for 8 weeks,7.49 ± 2.18 mmol/L
same,INS,STZ rats; 3 mg/kg orally for 8 weeks,19.87 ± 4.21 μ IU/ml
same,TG,STZ rats; 3 mg/kg orally for 8 weeks,1.44 ± 0.16 mmol/L
